Reference: ChEMBL document CHEMBL4152386, “Discovery of a Novel Inhaled PI3Kδ Inhibitor for the Treatment of Respiratory Diseases” (J Med Chem, 2018)
Values after ≈ are worked out from the molar mass of the structure shown.

Legend:
[1] = target: T1, Phosphatidylinositol 4,5-bisphosphate 3-kinase catalytic subunit delta isoform (Mus musculus, UniProt O35904); experiment: Inhibition of mouse ABD-truncated p110delta catalytic subunit (unknown origin) expressed in Sf9 cells using diC8-PIP2 substrate incubated for 1 hr by fluorescence polarization assay
T1 sequence (O35904 whole entry): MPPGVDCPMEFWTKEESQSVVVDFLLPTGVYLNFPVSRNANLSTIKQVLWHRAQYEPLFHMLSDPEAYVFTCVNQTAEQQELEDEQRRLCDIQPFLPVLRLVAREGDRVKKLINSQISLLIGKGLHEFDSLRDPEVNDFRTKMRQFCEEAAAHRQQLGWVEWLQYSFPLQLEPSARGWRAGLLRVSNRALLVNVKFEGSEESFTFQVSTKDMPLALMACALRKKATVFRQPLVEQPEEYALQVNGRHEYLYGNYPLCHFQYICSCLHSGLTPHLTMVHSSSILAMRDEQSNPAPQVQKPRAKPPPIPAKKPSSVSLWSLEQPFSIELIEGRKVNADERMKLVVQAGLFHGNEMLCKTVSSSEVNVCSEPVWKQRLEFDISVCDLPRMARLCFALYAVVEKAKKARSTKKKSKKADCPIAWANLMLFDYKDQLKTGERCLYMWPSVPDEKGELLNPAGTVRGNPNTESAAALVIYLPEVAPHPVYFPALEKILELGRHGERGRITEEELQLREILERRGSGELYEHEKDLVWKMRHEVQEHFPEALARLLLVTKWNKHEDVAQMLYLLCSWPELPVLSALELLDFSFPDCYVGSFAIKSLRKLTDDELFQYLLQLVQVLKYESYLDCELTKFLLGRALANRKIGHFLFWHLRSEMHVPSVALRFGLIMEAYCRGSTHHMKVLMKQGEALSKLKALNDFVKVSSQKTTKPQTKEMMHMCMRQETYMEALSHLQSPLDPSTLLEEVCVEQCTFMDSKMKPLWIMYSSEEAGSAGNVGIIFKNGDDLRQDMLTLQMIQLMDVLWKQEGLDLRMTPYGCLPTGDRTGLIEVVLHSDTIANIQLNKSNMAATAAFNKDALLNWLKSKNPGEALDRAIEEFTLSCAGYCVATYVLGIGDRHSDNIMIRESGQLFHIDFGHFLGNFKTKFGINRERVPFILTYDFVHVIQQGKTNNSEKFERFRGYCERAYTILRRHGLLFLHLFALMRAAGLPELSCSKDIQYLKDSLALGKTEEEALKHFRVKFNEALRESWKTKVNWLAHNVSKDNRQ

[2] = Cmax in Wistar rat at 1 mg/kg, iv; format: ADME, organism-based; parameters: dose 1 mg/kg, route intravenous; details: in vivo
[3] = Half life in Wistar rat plasma at 0.3 mg/kg, it administered as suspension; format: ADME, organism-based; details: inhaled or intranasal
Rattus norvegicus [4] = experiment: Anti-inflammatory activity in Brown Norway rat model of ovalbumin-induced inflammation assessed inhibition of neutrophils infiltration in bronchoalveolar lavage at 0.1 mg/kg, it administered 1 hr before ovalbumin aerosol challenge and measured 24 hrs post challenge by hematology analysis relative to control; format: functional; details: inhaled or nasal
[5] = target: T2, Phosphatidylinositol 4,5-bisphosphate 3-kinase catalytic subunit delta isoform (Homo sapiens, UniProt O00329); experiment: Inhibition of PI3Kdelta in human THP-1 cells assessed as reduction in M-CSF-stimulated AKT phosphorylation at Thr308 preincubated for 30 mins followed by M-CSF addition for 3 mins by ELISA; format: cell-based
T2 sequence (O00329 whole entry): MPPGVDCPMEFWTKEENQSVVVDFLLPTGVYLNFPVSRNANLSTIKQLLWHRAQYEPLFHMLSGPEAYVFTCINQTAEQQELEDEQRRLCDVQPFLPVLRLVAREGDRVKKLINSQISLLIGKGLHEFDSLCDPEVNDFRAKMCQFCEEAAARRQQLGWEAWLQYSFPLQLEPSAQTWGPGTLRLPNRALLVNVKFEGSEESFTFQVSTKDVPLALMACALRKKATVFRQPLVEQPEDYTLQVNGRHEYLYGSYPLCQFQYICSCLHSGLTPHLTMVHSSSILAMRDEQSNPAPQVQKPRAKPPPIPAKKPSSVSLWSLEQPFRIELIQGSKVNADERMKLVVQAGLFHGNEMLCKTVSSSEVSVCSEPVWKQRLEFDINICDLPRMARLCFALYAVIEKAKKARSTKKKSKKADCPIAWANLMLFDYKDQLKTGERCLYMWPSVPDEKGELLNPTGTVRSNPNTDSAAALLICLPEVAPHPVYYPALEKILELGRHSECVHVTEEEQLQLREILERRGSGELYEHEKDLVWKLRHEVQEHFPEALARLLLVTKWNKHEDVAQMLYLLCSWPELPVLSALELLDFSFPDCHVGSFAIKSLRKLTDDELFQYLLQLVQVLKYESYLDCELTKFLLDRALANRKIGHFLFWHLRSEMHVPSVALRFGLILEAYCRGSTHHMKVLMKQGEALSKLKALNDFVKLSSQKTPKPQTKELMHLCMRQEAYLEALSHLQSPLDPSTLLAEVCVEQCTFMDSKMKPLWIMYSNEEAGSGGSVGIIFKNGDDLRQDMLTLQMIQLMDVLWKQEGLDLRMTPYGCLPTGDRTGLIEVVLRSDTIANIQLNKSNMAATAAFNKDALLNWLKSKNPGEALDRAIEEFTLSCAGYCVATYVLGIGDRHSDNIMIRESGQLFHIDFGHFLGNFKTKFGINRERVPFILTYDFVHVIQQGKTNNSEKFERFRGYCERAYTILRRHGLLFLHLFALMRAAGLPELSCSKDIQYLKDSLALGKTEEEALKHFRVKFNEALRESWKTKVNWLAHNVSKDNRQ

Rattus norvegicus [6] = experiment: Anti-inflammatory activity in Brown Norway rat model of ovalbumin-induced inflammation assessed inhibition of eosinophil infiltration in bronchoalveolar lavage at 0.1 mg/kg, it administered 1 hr before ovalbumin aerosol challenge and measured 24 hrs post challenge by hematology analysis relative to control; format: functional; details: inhaled or nasal
Rattus norvegicus [7] = experiment: Anti-inflammatory activity in Brown Norway rat model of ovalbumin-induced inflammation assessed inhibition of neutrophil infiltration in bronchoalveolar lavage at 0.3 mg/kg, it administered 1 hr before ovalbumin aerosol challenge and measured 24 hrs post challenge by hematology analysis relative to control; format: functional; details: inhaled or nasal
[8] = Thermodynamic aqueous solubility of the compound at pH 7.4; format: physicochemical; details: buffer, read-out: Therm_solubility
[9] = AUC in Wistar rat at 1 mg/kg, iv; format: ADME, organism-based; details: in vivo
PI3K p110 beta/p85 alpha = PI3K p110 beta/p85 alpha (Homo sapiens, UniProt P42338)
Description: Inhibition of recombinant human N-terminal His6-tagged full length p110beta/recombinant human full length p85alpha using PIP2 as substrate preincubated for 30 mins followed by substrate addition and HTRF assay

[10] = Half life in Wistar rat lung at 0.3 mg/kg, it administered as suspension; format: ADME, organism-based; details: inhaled or intranasal
[11] = Cmax in Wistar rat lung at 0.3 mg/kg, it administered as suspension; format: ADME, organism-based; parameters: dose 0.3 mg/kg; details: inhaled or intranasal
Rattus norvegicus [12] = experiment: fCmax in Brown Norway rat model of ovalbumin-induced inflammation assessed inhibition of eosinophil infiltration in bronchoalveolar lavage at 0.3 mg/kg, it administered 1 hr before ovalbumin aerosol challenge and measured 24 hrs post challenge by hematology analysis relative to control; format: organism-based; details: in vivo, inhaled_or_intranasal
[13] = target: Voltage-gated inwardly rectifying potassium channel KCNH2 (Homo sapiens, UniProt Q12809); experiment: Inhibition of human ERG up to 10 uM
Sequence of Voltage-gated inwardly rectifying potassium channel KCNH2 (Q12809 whole entry): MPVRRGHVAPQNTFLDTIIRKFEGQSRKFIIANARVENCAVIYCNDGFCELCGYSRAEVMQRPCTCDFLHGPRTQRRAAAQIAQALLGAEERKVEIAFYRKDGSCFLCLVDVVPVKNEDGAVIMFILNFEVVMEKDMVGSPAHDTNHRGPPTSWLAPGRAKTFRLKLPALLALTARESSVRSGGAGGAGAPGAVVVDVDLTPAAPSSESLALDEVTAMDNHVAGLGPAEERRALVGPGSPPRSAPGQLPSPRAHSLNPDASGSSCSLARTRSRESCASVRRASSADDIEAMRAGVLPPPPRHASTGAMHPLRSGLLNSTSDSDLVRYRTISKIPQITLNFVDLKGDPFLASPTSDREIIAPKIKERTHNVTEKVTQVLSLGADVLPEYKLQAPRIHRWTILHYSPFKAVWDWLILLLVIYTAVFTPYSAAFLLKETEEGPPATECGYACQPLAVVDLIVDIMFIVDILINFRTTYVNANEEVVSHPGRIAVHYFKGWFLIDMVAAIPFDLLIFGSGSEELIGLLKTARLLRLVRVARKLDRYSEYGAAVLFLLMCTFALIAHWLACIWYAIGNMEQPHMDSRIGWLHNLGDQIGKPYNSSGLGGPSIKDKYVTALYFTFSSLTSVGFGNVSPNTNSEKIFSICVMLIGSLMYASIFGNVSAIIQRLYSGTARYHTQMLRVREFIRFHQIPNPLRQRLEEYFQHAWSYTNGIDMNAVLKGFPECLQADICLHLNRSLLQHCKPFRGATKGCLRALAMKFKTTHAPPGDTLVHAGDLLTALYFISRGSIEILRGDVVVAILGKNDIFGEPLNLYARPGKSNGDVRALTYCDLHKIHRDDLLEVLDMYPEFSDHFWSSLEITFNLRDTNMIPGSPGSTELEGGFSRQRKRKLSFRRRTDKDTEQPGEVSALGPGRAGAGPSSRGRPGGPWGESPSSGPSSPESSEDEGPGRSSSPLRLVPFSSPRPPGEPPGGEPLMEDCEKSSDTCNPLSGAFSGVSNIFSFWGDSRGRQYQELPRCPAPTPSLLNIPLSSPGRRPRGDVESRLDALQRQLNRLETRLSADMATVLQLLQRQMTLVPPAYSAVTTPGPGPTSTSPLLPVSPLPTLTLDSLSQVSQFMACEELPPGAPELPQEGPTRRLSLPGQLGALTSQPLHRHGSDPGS

[14] = Cmax in Wistar rat plasma at 0.3 mg/kg, it administered as suspension; format: ADME, organism-based; parameters: dose 0.3 mg/kg; details: inhaled or intranasal
[15] = AUC in Wistar rat plasma at 0.3 mg/kg, it administered as suspension; format: ADME, organism-based; details: inhaled or intranasal
[16] = Ratio of AUC in lung to plasma of Wistar rat at 0.015 mg/kg, it administered as solution; format: ADME, organism-based; details: other tissue, inhaled_or_intranasal
[17] = Half life in Wistar rat at 1 mg/kg, iv; format: ADME, organism-based; details: in vivo
[18] = Protein binding in rat plasma at 1 uM by equilibrium dialysis; format: ADME, cell-free; details: read-out: PPB (converted)
[19] = Ratio of AUC in lung to plasma of Wistar rat at 0.3 mg/kg, it administered as suspension; format: ADME, organism-based; details: other tissue, inhaled_or_intranasal
[20] = target: PI3-kinase p110-alpha/p85-alpha (Homo sapiens, UniProt P42336)
Sequence of PI3-kinase p110-alpha/p85-alpha (P27986 whole entry): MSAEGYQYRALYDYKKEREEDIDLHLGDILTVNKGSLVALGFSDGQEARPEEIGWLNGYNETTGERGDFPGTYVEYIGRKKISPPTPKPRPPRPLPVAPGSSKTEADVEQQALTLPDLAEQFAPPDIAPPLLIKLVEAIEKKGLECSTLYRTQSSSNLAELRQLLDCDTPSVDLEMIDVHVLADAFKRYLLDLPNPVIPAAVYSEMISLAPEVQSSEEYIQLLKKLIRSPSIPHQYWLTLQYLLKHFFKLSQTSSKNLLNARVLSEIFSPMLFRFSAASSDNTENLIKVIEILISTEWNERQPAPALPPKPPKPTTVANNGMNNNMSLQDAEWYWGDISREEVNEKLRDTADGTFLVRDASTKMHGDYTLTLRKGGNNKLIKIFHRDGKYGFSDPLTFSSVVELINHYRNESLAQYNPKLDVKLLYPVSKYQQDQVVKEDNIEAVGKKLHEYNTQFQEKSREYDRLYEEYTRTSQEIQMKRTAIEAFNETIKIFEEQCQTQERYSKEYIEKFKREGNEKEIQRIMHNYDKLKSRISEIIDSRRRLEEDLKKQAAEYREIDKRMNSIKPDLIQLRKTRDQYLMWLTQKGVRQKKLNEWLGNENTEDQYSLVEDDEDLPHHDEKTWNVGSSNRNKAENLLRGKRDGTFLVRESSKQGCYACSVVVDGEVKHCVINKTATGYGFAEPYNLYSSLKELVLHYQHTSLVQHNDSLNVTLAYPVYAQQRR
Sequence of PI3-kinase p110-alpha/p85-alpha (P42336 whole entry): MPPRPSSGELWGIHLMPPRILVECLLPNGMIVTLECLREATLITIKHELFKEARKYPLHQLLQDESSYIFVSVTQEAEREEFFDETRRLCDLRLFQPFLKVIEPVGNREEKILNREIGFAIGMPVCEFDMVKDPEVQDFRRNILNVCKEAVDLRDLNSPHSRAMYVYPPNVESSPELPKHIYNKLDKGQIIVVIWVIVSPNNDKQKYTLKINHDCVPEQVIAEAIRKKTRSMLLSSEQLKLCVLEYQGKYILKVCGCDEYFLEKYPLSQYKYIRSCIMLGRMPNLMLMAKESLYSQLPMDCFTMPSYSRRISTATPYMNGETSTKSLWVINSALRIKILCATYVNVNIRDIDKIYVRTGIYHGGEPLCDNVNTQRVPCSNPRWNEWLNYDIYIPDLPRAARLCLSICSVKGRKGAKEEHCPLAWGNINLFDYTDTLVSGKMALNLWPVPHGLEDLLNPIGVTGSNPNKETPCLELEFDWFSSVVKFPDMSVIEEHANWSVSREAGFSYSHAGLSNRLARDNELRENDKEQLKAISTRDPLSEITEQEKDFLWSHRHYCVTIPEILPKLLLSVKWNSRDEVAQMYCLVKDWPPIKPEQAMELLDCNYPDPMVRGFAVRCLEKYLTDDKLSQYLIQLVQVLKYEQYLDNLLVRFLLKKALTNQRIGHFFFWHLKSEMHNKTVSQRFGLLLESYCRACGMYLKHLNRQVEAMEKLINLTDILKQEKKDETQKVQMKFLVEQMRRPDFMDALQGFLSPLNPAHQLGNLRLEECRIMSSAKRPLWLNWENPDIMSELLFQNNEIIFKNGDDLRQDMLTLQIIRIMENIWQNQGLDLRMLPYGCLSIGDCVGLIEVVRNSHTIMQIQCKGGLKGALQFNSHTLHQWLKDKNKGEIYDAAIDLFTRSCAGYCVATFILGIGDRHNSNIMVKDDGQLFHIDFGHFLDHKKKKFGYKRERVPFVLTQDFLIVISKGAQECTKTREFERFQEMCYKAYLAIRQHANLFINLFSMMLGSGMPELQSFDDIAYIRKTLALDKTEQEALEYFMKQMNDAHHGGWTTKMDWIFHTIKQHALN
Description: Inhibition of recombinant human N-terminal His6-tagged full length p110alpha/recombinant human full length p85alpha using PIP2 as substrate preincubated for 30 mins followed by substrate addition by HTRF assay

[21] = AUC in Wistar rat lung at 0.015 mg/kg, it administered as solution; format: ADME, organism-based; details: in vivo, inhaled_or_intranasal
[22] = AUC in Wistar rat plasma at 0.015 mg/kg, it administered as solution; format: ADME, organism-based; details: inhaled or intranasal
[23] = Drug metabolism in rat liver microsomes assessed as disappearance of parent compound at 5 uM after 30 mins in presence of NADPH by UPLC-MS/MS analysis; format: ADME, microsome; details: read-out: Drug metabolism
[24] = Cmax in Wistar rat plasma at 0.015 mg/kg, it administered as solution; format: ADME, organism-based; parameters: dose 0.015 mg/kg; details: inhaled or intranasal
[25] = target: Phosphatidylinositol 4,5-bisphosphate 3-kinase catalytic subunit gamma isoform (Homo sapiens, UniProt P48736); experiment: Inhibition of recombinant human N-terminal His6-tagged full length p110gamma using PIP2 as substrate preincubated for 30 mins followed by substrate addition by HTRF assay
Sequence of Phosphatidylinositol 4,5-bisphosphate 3-kinase catalytic subunit gamma isoform (P48736 whole entry, canonical isoform): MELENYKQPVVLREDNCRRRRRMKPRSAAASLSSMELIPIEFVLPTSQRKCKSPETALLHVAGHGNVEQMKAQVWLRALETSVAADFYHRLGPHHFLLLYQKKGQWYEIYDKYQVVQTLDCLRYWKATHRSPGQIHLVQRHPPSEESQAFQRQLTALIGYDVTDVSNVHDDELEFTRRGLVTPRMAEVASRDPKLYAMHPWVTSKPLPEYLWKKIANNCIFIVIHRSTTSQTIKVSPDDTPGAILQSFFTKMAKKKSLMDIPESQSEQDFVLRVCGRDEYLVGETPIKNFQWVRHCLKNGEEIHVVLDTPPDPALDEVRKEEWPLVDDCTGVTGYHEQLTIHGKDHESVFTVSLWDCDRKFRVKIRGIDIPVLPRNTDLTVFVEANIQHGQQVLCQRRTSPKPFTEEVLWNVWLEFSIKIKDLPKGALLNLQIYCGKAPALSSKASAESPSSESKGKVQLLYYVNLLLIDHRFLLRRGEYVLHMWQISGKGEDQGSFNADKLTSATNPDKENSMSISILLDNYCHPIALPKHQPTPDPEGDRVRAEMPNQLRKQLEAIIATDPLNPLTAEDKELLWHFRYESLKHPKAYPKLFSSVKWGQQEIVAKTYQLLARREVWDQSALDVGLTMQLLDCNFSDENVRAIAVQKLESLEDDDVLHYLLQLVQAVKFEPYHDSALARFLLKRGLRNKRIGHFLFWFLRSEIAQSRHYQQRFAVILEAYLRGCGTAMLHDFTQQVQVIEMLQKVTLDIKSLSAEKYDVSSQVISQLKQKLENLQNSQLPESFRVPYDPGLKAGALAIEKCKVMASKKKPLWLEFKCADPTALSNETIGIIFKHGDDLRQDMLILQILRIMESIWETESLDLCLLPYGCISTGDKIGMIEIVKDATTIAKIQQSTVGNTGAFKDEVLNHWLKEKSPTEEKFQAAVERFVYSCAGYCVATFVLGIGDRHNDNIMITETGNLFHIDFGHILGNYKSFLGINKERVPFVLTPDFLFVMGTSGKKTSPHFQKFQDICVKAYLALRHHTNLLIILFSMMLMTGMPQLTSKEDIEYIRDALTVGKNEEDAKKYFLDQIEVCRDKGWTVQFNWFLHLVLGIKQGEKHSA

[26] = Volume of distribution at steady state in Wistar rat at 1 mg/kg, iv; format: ADME, organism-based; details: in vivo, read-out: Vdss
[27] = Drug metabolism in human liver microsomes assessed as disappearance of parent compound at 5 uM preincubated for 3 mins followed UDPG addition and measured after 120 mins by UPLC-MS/MS analysis; format: ADME, microsome; details: read-out: Drug metabolism
[28] = Clearance in Wistar rat at 1 mg/kg, iv; format: ADME, organism-based; details: in vivo
[29] = Drug metabolism in human liver microsomes assessed as disappearance of parent compound at 5 uM after 30 mins in presence of NADPH by UPLC-MS/MS analysis; format: ADME, microsome; details: read-out: Drug metabolism
[30] = Half life in Wistar rat plasma at 0.015 mg/kg, it administered as solution; format: ADME, organism-based; details: inhaled or intranasal
[31] = Drug metabolism in rat liver microsomes assessed as disappearance of parent compound at 5 uM preincubated for 3 mins followed UDPG addition and measured after 120 mins by UPLC-MS/MS analysis; format: ADME, microsome; details: read-out: Drug metabolism
Rattus norvegicus [32] = experiment: Anti-inflammatory activity in Brown Norway rat model of ovalbumin-induced inflammation assessed inhibition of eosinophil infiltration in bronchoalveolar lavage at 0.3 mg/kg, it administered 1 hr before ovalbumin aerosol challenge and measured 24 hrs post challenge by hematology analysis relative to control; format: functional; details: inhaled or nasal
[33] = Oral bioavailability in Wistar rat at 1 mg/kg; format: ADME, organism-based; details: in vivo
[34] = Cmax in Wistar rat lung at 0.015 mg/kg, it administered as solution; format: ADME, organism-based; parameters: dose 0.015 mg/kg; details: inhaled or intranasal
[35] = Apparent permeability of the compound at 20 uM by PAMPA assay; format: ADME
[36] = Half life in Wistar rat lung at 0.015 mg/kg, it administered as solution; format: ADME, organism-based; details: inhaled or intranasal
[37] = target: PI3-kinase p110-delta/p85-alpha (Homo sapiens, UniProt O00329)
Sequence of PI3-kinase p110-delta/p85-alpha (P27986 whole entry, one chain of several): as the sequence (P27986 whole entry) above
Description: Inhibition of recombinant human N-terminal His-tagged full length p110delta/recombinant human full length p85alpha using PIP2 as substrate preincubated for 30 mins followed by substrate addition by HTRF assay

[38] = AUC in Wistar rat lung at 0.3 mg/kg, it administered as suspension; format: ADME, organism-based; details: in vivo, inhaled_or_intranasal

SMILES: Cc1ccccc1-n1c(CN2CNc3c(N)ncnc32)nc2cccc(C)c2c1=O
- IC50 [1]: 130 nM

SMILES: Cc1ccn2nc([C@H](C)Nc3ncnc4[nH]cc(-c5cc(NS(C)(=O)=O)cc6[nH]ccc56)c34)n(-c3ccccc3)c(=O)c12
- Cmax [2]: 455 ng/mL
- half-life [3]: 3.2 h
- inhibition in vivo at 0.1 mg/kg (Rattus norvegicus [4]): 42%
- IC50 [5]: 2.7 nM
- inhibition in vivo at 0.1 mg/kg (Rattus norvegicus [6]): 21%
- inhibition in vivo at 0.3 mg/kg (Rattus norvegicus [7]): 77%
- solubility thermodynamic [8]: 3 µg/mL (≈ 5.05 µM)
- AUC [9]: 171 ng·h/mL
- IC50 (PI3K p110 beta/p85 alpha): 10 nM
- half-life [10]: 4.5 h
- Cmax [11]: 73300 ng/g
- fCmax (Rattus norvegicus [12]): 0.3 nM
- inhibition (INH) [13]: Not Active
- Cmax [14]: 16400 ng/mL
- AUC [15]: 96.5 ng·h/mL
- Ratio [16]: 2925
- half-life [17]: 1.7 h
- fraction unbound at 1 µM [18]: 0.011
- Ratio [19]: 4763
- IC50 [20]: 1900 nM
- AUC [21]: 15.5 µg·h/g
- AUC [22]: 5.3 ng·h/mL
- metabolised at 0.5 h, 5 µM [23]: 32%
- Cmax [24]: 1.4 ng/mL
- IC50 [25]: 36 nM
- Vd [26]: 5.2 L/kg
- metabolised at 2 h, 5 µM [27]: 30%
- clearance [28]: 96 mL/min/kg
- metabolised at 0.5 h, 5 µM [29]: 68%
- half-life [30]: 3.2 h
- metabolised at 2 h, 5 µM [31]: 10%
- inhibition in vivo at 0.3 mg/kg (Rattus norvegicus [32]): 55%
- bioavailability [33]: 1%
- Cmax [34]: 3400 ng/g
- Papp at 20 µM [35]: 0.2 ×10⁻⁶ cm/s
- half-life [36]: 2.8 h
- IC50 [37]: 0.5 nM
- AUC [38]: 459.6 µg·h/g
